# Experimental data from patent publication US20260285850A1, “SUBSTITUTED OXAZOLIDINONES AND IMIDAZOLINONES AS HERBICIDES” (FMC CORPORATION, priority 2023, published 2026).
# What was measured:
# Format in all cases: in vivo
# [1] = system: barnyardgrass (Echinochloa crus-galli); assay: Test A preemergence soil spray, visual injury rating 0-100; settings: 10 days
# How it was run: (§1)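 Loam-sand pots got test material in surfactant-containing solvent, either as a directed soil spray before emergence or on plants at the one- to two-leaf stage. Visual injury (0-100) was read after ten greenhouse days.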
# [2] = system: blackgrass (Alopecurus myosuroides); assay: as above; settings: 10 days
# How it was run: as §1
# corn (Zea mays) [3] = assay: as above; settings: 10 days
# How it was run: as §1
# [4] = system: green foxtail (Setaria viridis); assay: as above; settings: 10 days
# How it was run: as §1
# kochia (Bassia scoparia) [5] = assay: as above; settings: 10 days
# How it was run: as §1
# [6] = system: oat, wild (wild oat, Avena fatua); assay: as above; settings: 10 days
# How it was run: as §1
# [7] = system: palmer (palmer amaranth, palmer pigweed, Amaranthus palmeri); assay: as above; settings: 62 g ai/ha, 10 days, 0 = no effect, 100 = complete control
# How it was run: as §1
# [8] = system: ragweed (common ragweed, Ambrosia artemisiifolia); assay: as above; settings: 10 days
# How it was run: as §1
# [9] = system: ryegrass, Italian (italian ryegrass, Lolium multiflorum); assay: as above; settings: 10 days
# How it was run: as §1
# soybean (Glycine max) [10] = assay: as above; settings: 10 days
# How it was run: as §1
# [11] = system: wheat (Triticum aestivum); assay: as above; settings: 10 days
# How it was run: as §1
# [12] = system: barnyardgrass (Echinochloa crus-galli); assay: Test A postemergence application, visual injury rating 0-100
# How it was run: as §1
# [13] = system: blackgrass (Alopecurus myosuroides); assay: as above
# How it was run: as §1
# corn (Zea mays) [14] = assay: as above
# How it was run: as §1
# [15] = system: galium (catchweed bedstraw, Galium aparine); assay: as above
# How it was run: as §1
# [16] = system: green foxtail (Setaria viridis); assay: as above
# How it was run: as §1
# [17] = system: horseweed (Erigeron canadensis); assay: as above
# How it was run: as §1
# kochia (Bassia scoparia) [18] = assay: as above
# How it was run: as §1
# [19] = system: oat, wild (wild oat, Avena fatua); assay: as above
# How it was run: as §1
# [20] = system: palmer (palmer amaranth, palmer pigweed, Amaranthus palmeri); assay: as above
# How it was run: as §1
# [21] = system: ragweed (common ragweed, Ambrosia artemisiifolia); assay: as above
# How it was run: as §1
# [22] = system: ryegrass, Italian (italian ryegrass, Lolium multiflorum); assay: as above
# How it was run: as §1
# soybean (Glycine max) [23] = assay: as above
# How it was run: as §1
# [24] = system: wheat (Triticum aestivum); assay: as above
# How it was run: as §1
# [25] = system: barnyardgrass (Echinochloa crusgalli); assay: Test B flooded paddy test, visual plant response rating 0-100; settings: 250 g ai/ha, Flood, applied to paddy water, evaluated after 13 days
# How it was run: (§2)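 Visual evaluation after 13 days. Water-applied treatment, 3 cm flood depth held constant, plants at 2-leaf stage at treatment.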
# [26] = system: ducksalad (Heteranthera limosa); assay: as above; settings: 250 g ai/ha, Flood, applied to paddy water, evaluated after 13 days
# How it was run: as §2
# rice (Oryza sativa) = assay: as above; settings: 250 g ai/ha, Flood, applied to paddy water, evaluated after 13 days
# How it was run: as §2
# [27] = system: sedge, umbrella (small-flower umbrella sedge, Cyperus difformis); assay: as above; settings: 250 g ai/ha, Flood, applied to paddy water, evaluated after 13 days
# How it was run: as §2
# [28] = 62 g ai/ha, 0 = no effect, 100 = complete control
# [29] = 62 g ai/ha, postemergence, 10 days, 0 = no effect, 100 = complete control
# [30] = Postemergence, 16 g ai/ha, greenhouse 10 days, 0 no effect, 100 complete control
smiles,measurement,setting,value
COC(=O)C1=CCC(NC(=O)C2(C)CN(c3cc(F)cc(Cl)c3)C(=O)O2)C1 (stereo not drawn) [Compound 140],Barnyardgrass plant response rating,"[1]; 16 g ai/ha, 0 to 100 scale",50
same,Barnyardgrass plant response rating (0-100),[1]; [28],100
same,Blackgrass plant response rating,"[2]; 16 g ai/ha, 0 to 100 scale",0
same,Blackgrass plant response rating (0-100),[2]; [28],50
same,Corn plant response rating,"corn (Zea mays) [3]; 16 g ai/ha, 0 to 100 scale",10
same,Corn plant response rating (0-100),corn (Zea mays) [3]; [28],60
same,"Foxtail, Green plant response rating","[4]; 16 g ai/ha, 0 to 100 scale",80
same,"Foxtail, Green plant response rating (0-100)",[4]; [28],90
same,Kochia plant response rating,"kochia (Bassia scoparia) [5]; 16 g ai/ha, 0 to 100 scale",50
same,Kochia plant response rating (0-100),kochia (Bassia scoparia) [5]; [28],100
same,"Oat, Wild plant response rating","[6]; 16 g ai/ha, 0 to 100 scale",20
same,"Oat, Wild plant response rating (0-100)",[6]; [28],20
same,"Pigweed, Palmer plant response rating (0-100)",[7],90
same,Ragweed plant response rating,"[8]; 16 g ai/ha, 0 to 100 scale",0
same,Ragweed plant response rating (0-100),[8]; [28],0
same,"Ryegrass, Italian plant response rating","[9]; 16 g ai/ha, 0 to 100 scale",50
same,"Ryegrass, Italian plant response rating (0-100)",[9]; [28],90
same,Soybean plant response rating,"soybean (Glycine max) [10]; 16 g ai/ha, 0 to 100 scale",0
same,Soybean plant response rating (0-100),soybean (Glycine max) [10]; [28],80
same,Wheat plant response rating,"[11]; 16 g ai/ha, 0 to 100 scale",40
same,Wheat plant response rating (0-100),[11]; [28],80
same,Barnyardgrass plant response rating (0-100),[12]; [29],100
same,Barnyardgrass plant response rating (0 to 100 scale),[12]; [30],100
same,Blackgrass plant response rating (0-100),[13]; [29],100
same,Blackgrass plant response rating (0 to 100 scale),[13]; [30],90
same,Corn plant response rating (0-100),corn (Zea mays) [14]; [29],100
same,Corn plant response rating (0 to 100 scale),corn (Zea mays) [14]; [30],100
same,Galium plant response rating (0-100),[15]; [29],90
same,Galium plant response rating (0 to 100 scale),[15]; [30],70
same,"Foxtail, Green plant response rating (0-100)",[16]; [29],90
same,"Foxtail, Green plant response rating (0 to 100 scale)",[16]; [30],90
same,Horseweed plant response rating (0-100),[17]; [29],90
same,Horseweed plant response rating (0 to 100 scale),[17]; [30],80
same,Kochia plant response rating (0-100),kochia (Bassia scoparia) [18]; [29],90
same,Kochia plant response rating (0 to 100 scale),kochia (Bassia scoparia) [18]; [30],90
same,"Oat, Wild plant response rating (0-100)",[19]; [29],90
same,"Oat, Wild plant response rating (0 to 100 scale)",[19]; [30],60
same,"Pigweed, Palmer plant response rating (0-100)",[20]; [29],80
same,"Pigweed, Palmer plant response rating (0 to 100 scale)",[20]; [30],60
same,Ragweed plant response rating (0-100),[21]; [29],70
same,Ragweed plant response rating (0 to 100 scale),[21]; [30],50
same,"Ryegrass, Italian plant response rating (0-100)",[22]; [29],80
same,"Ryegrass, Italian plant response rating (0 to 100 scale)",[22]; [30],60
same,Soybean plant response rating (0-100),soybean (Glycine max) [23]; [29],70
same,Soybean plant response rating (0 to 100 scale),soybean (Glycine max) [23]; [30],70
same,Wheat plant response rating (0-100),[24]; [29],90
same,Wheat plant response rating (0 to 100 scale),[24]; [30],80
same,"Plant response rating, Barnyardgrass (0 to 100 scale, 0 is no effect and 100 is complete control)",[25],85
same,"Plant response rating, Ducksalad (0 to 100 scale, 0 is no effect and 100 is complete control)",[26],65
same,"Plant response rating, Rice (0 to 100 scale, 0 is no effect and 100 is complete control)",rice (Oryza sativa),65
same,"Plant response rating, Sedge, Umbrella (0 to 100 scale, 0 is no effect and 100 is complete control)",[27],100
